Assay results reported in ChEMBL document CHEMBL1201862, “PubChem BioAssay data set” (2004).
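Values below derive from 48-hour exposures of cells grown in 96-well plates, with endpoints linearly interpolated between the two concentrations bracketing the appropriate inhibition level. GI50 = concentration required for 50% inhibition of growth.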 Active and inactive are the calls of the source. No stated cut-off is given here; in the data, active = GI50 up to about 1.1 µM and inactive = higher.

Key:
Experiment in all cases: NCI anticancer screen, dose series, 48 h
NCI-H23 = system: NCI-H23
MDA-MB-231 = system: MDA-MB-231
SF-295 = system: SF-295
HL-60 = system: HL-60
Malme-3M = system: Malme-3M
CAKI-1 = system: CAKI-1
HCT-116 = system: HCT-116
UO-31 = system: UO-31
SK-OV-3 = system: SK-OV-3
IGROV-1 = system: IGROV-1
SK-MEL-5 = system: SK-MEL-5
MOLT-4 = system: MOLT-4
SW-620 = system: SW-620
MDA-MB-435 = system: MDA-MB-435
LOX IMVI = system: LOX IMVI
SK-MEL-2 = system: SK-MEL-2
OVCAR-5 = system: OVCAR-5
EKVX = system: EKVX
UACC-257 = system: UACC-257
OVCAR-4 = system: OVCAR-4
Hs-578T = system: Hs-578T
NCI-H460 = system: NCI-H460
ACHN = system: ACHN
NCI-H522 = system: NCI-H522
KM12 = system: KM12
PC-3 = system: PC-3
BT-549 = system: BT-549
COLO 205 = system: COLO 205
SR = system: SR
NCI/ADR-RES = system: NCI/ADR-RES
CCRF-CEM = system: CCRF-CEM
SK-MEL-28 = system: SK-MEL-28
SNB-75 = system: SNB-75
SF-268 = system: SF-268
TK-10 = system: TK-10
786-0 = system: 786-0
M14 = system: M14
RPMI-8226 = system: RPMI-8226
A549 = system: A549
SN12C = system: SN12C
K562 = system: K562
OVCAR-3 = system: OVCAR-3
A498 = system: A498
T47D = system: T47D
NCI-H226 = system: NCI-H226
HCC 2998 = system: HCC 2998
HOP-62 = system: HOP-62
OVCAR-8 = system: OVCAR-8
HT-29 = system: HT-29
MDA-N = system: MDA-N
MCF7 = system: MCF7
RXF 393 = system: RXF 393
SNB-19 = system: SNB-19
U-251 = system: U-251
DU-145 = system: DU-145
SF-539 = system: SF-539
HOP-92 = system: HOP-92
HCT-15 = system: HCT-15
UACC-62 = system: UACC-62

Measured: GI50

CC(=O)n1nc(-c2nc3ccccc3nc2Cl)cc1Cl
inactive: NCI-H23 6.24 µM | MDA-MB-231 28.8 µM | SF-295 29.6 µM | HL-60 8.02 µM | Malme-3M 23.4 µM | CAKI-1 3.34 µM | HCT-116 3.78 µM | UO-31 1.39 µM | SK-OV-3 20.5 µM | IGROV-1 30.1 µM | SK-MEL-5 4.68 µM | MOLT-4 1.9 µM | SW-620 2.88 µM | MDA-MB-435 3.94 µM | LOX IMVI 5.47 µM | SK-MEL-2 25.6 µM | OVCAR-5 34.7 µM | EKVX 12.5 µM | UACC-257 > 68.1 µM | OVCAR-4 19.5 µM | Hs-578T 34.5 µM | NCI-H460 32.8 µM | ACHN 11.6 µM | NCI-H522 7.78 µM | KM12 19.4 µM | PC-3 30.9 µM | BT-549 5.89 µM | COLO 205 18.4 µM | SR 3.34 µM | NCI/ADR-RES 22.3 µM | CCRF-CEM 2.45 µM | SK-MEL-28 24.7 µM | SNB-75 25.8 µM | SF-268 38.6 µM | TK-10 37.4 µM | 786-0 23.6 µM | M14 4.43 µM | RPMI-8226 13.6 µM | A549 29.5 µM | SN12C 7.78 µM | K562 3.61 µM | OVCAR-3 19.8 µM | A498 > 71.4 µM | T47D 68.4 µM | NCI-H226 10.3 µM | HCC 2998 36.6 µM | HOP-62 20.3 µM | OVCAR-8 26.4 µM | HT-29 23 µM | MDA-N 8.36 µM | MCF7 26.9 µM | RXF 393 40.7 µM | SNB-19 30.5 µM | U-251 26.3 µM | DU-145 20.6 µM | SF-539 2.88 µM | HOP-92 > 69.8 µM | UACC-62 27.2 µM
11.2 µM: HCT-15

CN1CCN(CCCCN2c3ccccc3Sc3cc(N=[N+]=[N-])ccc32)CC1
inactive: NCI-H23 6.31 µM | MDA-MB-231 1.91 µM | SF-295 2.18 µM | HL-60 2.26 µM | Malme-3M 1.71 µM | CAKI-1 2.01 µM | HCT-116 1.62 µM | SK-OV-3 8.49 µM | IGROV-1 1.93 µM | SK-MEL-5 1.57 µM | MOLT-4 1.77 µM | SW-620 1.98 µM | MDA-MB-435 1.7 µM | LOX IMVI 1.62 µM | SK-MEL-2 2.09 µM | OVCAR-5 12.6 µM | EKVX 5.69 µM | UACC-257 1.99 µM | OVCAR-4 2.88 µM | Hs-578T 1.95 µM | NCI-H460 1.94 µM | ACHN 2.15 µM | NCI-H522 1.7 µM | KM12 1.84 µM | PC-3 1.82 µM | BT-549 7.76 µM | COLO 205 1.74 µM | SR 5.5 µM | NCI/ADR-RES 2.59 µM | CCRF-CEM 2.14 µM | SK-MEL-28 1.82 µM | SNB-75 3.39 µM | SF-268 6.19 µM | TK-10 1.91 µM | 786-0 1.62 µM | M14 1.72 µM | RPMI-8226 2.31 µM | A549 1.94 µM | SN12C 2.31 µM | K562 1.38 µM | OVCAR-3 2.55 µM | A498 9.14 µM | T47D 9.23 µM | NCI-H226 5.93 µM | HCC 2998 1.39 µM | HOP-62 2.49 µM | OVCAR-8 1.82 µM | HT-29 1.61 µM | MDA-N 3.41 µM | MCF7 1.99 µM | RXF 393 2.7 µM | SNB-19 3.62 µM | U-251 2.73 µM | DU-145 4.21 µM | SF-539 3.31 µM | HOP-92 1.94 µM | UACC-62 2.13 µM
active: UO-31 0.586 µM
2.28 µM: HCT-15
